Laboratory results published in BigSolDB 2.1.

C[C@H]1[C@H](OC(=O)CCC(=O)O)O[C@@H]2O[C@@]3(C)CC[C@H]4[C@H](C)CC[C@@H]1[C@@]24OO3
solubility (mole fraction)
Conditions | 278.15 K | 283.15 K | 288.15 K | 293.15 K | 298.15 K | 303.15 K | 308.15 K | 313.15 K | 318.15 K
in ethanol | 0.00528 | 0.00575 | 0.00636 | 0.00709 | 0.00782 | 0.00854 | 0.00939 | 0.0102 | 0.0111
in isopropanol | 0.00285 | 0.00336 | 0.00392 | 0.00461 | 0.00527 | 0.00609 | 0.00698 | 0.00796 | 0.00898
in methanol | 0.00497 | 0.00538 | 0.00606 | 0.00677 | 0.00747 | 0.00817 | 0.00906 | 0.00994 | 0.0108
in propylene glycol | 0.001 | 0.00123 | 0.00148 | 0.00176 | 0.00205 | 0.00237 | 0.00279 | 0.0032 | 0.00366
in water | 9.48e-06 | 1.28e-05 | 1.66e-05 | 2.16e-05 | 2.71e-05 | 3.51e-05 | 4.44e-05 | 5.54e-05 | 6.94e-05
